In patent US12617757B2, “Compounds and modules for inhibition of pre-miR-21 and their use in treatment of certain cancers” (University of Florida Research Foundation, Incorporated, priority 2019, dated 2026):

Biological target: T1, RNase L (Homo sapiens, UniProt Q05823)
T1 sequence (Q05823 1-741): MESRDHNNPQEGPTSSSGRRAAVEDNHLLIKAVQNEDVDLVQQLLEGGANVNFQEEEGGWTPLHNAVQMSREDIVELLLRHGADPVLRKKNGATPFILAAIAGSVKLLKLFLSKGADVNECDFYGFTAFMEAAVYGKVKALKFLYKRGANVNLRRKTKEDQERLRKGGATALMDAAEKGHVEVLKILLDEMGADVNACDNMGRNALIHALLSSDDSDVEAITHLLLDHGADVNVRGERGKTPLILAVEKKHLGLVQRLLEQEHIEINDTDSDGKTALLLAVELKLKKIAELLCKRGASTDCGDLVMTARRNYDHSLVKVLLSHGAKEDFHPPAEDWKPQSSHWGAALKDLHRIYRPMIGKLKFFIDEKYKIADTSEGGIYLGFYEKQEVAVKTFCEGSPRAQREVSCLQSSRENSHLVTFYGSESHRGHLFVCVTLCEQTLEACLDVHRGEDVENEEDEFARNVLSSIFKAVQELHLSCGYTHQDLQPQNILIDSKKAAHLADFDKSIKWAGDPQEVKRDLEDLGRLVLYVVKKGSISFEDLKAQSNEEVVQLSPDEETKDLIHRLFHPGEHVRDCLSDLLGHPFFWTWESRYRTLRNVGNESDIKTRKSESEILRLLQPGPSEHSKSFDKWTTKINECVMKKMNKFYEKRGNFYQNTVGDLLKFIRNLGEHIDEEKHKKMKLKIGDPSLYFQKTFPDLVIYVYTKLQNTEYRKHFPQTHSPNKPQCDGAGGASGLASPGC
Assay: In vitro fluorescence recovery assay with model RNA (RNase L activation)
Format: biochemical
Set-up: GST; made in house
Protocol: In Vitro Fluorescent RNA Cleavage. A model RNA hairpin^15 labeled with a 5′ 6-Fluorescein (6FAM) and 3′ Black Hole Quencher (IQ4) (5′ 6FAM-[…]-3′ IQ4; 5′ FAM/3′ BHQ model RNA) (SEQ ID NO: 3) or a miR-21 Hairpin Precursor RNA labeled with a 5′ 6-Fluorescein (6FAM) and 3′ Black Hole Quencher (IQ4) (5′ 6FAM-[…] […]-3′ IQ4; 5′ FAM/3′ BHQ miR-21 Hairpin Precursor RNA) (SEQ ID NO: 4) was purchased from Chemgenes with HPLC purification. Solutions of RNA (100 nM) were folded at 65° C. for 5 min and slowly cooled to room temperature in 1×RNase L Buffer (25 mM Tris-HCl, pH 7.4, 100 mM KCl) without MgCl2, β-mercaptoethanol or ATP. After folding, the RNA was supplemented with 10 mM MgCl2, fresh 7 mM β-mercaptoethanol, and 50 μM of ATP. Next, 100 nM of RNase L, prepared as described previously^22, and various concentrations of screening compounds were prepared in 1×RNase L Buffer and added to the RNA. […] The samples were incubated at room temperature for 60 min after which the fluorescence intensity (Ex: 485 nm, Em: 525 nm) was measured using a SpectraMax M5 plate reader or Biotek FLx800 plate reader. The percentage change in fluorescence intensity, where enhancement of fluorescence intensity was indicative of RNA cleavage, was determined by calculating the percentage change in sample fluorescent signals relative to the untreated fluorescent signal (Fi, %). […]

RNase L activation, dose-responsive measurements: most active activator of RNase L
SMILES: CCOC(=O)C1=C(Nc2ccccc2)S/C(=C\c2ccc(OC)c(O)c2)C1=O [Compound 3]
